Laboratory results published in publication PMC8746705, “Comparison of Experimental Strategies to Study L-Type Amino Acid Transporter 1 (LAT1) Utilization by Ligands” (Molecules, 2021).

What was measured:
[1] = Liver lysosomal accumulation after i.p. dose to mice; type: in vivo; conditions: mouse liver; parent drug of the named prodrug
Procedure: Adult male mice weighing 25 ± 5 g were supplied by Envigo (Venray, Netherlands). Mice were housed in stainless steel cages on a 12 h light (07:00–19:00) and 12 h dark (19:00–07:00) cycle at an ambient temperature of 22 ± 1 °C with a relative humidity of 50–60%. All experiments were carried out during the light phase. Tap water and food pellets (Lactamin R36; Lactamin AB, Södertälje, Sweden) were available ad libitum. A dose of 25 µmol/kg of compound 1, 2, or 8–11 was given as a bolus injection (i.p.) to mice. The mice were decapitated at selected time points between (10–360 min) and brain tissues were collected for sample preparation to be analyzed by liquid chromatography-mass spectrometric (LC-MS/MS) analysis.
The liver lysosomal samples (10–120 min; tmax) were prepared by homogenizing the pre-weigh tissues with ice-cold 0.25 M sucrose (1:3). […] Samples were vortexed and centrifuged at 10,000× g at 4 °C for 10 min and injected to LC-MS/MS to quantify the total drug amount in tissue as a control to lysosomal samples. […] The concentration of compounds in the crude lysosomal fractions were then analyzed with LC-MS/MS. Both the total liver tissue accumulation as well as the lysosomal fraction (including the possibly released parent drugs) were calculated from the standard curve that was prepared by spiking known amounts of compounds to ACN, including the selected internal standard. […]

LAT1 [2] = assay: Quantitative expression of LAT1 on the BV2 plasma membrane (LC-MS proteomics); type: cell-based, mouse; conditions: BV2 cells incubated 24 h; normalized to Na+/K+ATPase; compared to untreated control
Procedure: The protein expression levels of LAT1, in the plasma membrane fractions of BV2 cells were quantified using multiplexed MRM analysis according to the protocol described by Uchida et al.. First, the crude membrane fractions were isolated from three distinct sets of cell culture plates using Membrane Protein Extraction Kit (BioVision Incorporated, Milpitas, CA, USA) according to the manufacturer’s instructions. The protein content for each fraction was measured by Bio-Rad Protein Assay, based on the Bradford dye-binding method (EnVision, Perkin Elmer, Inc., Waltham, MA, USA). A total amount of 50 µg protein from each fraction was solubilized/denatured in 7 M guanidine hydrochloride, 0.5 M Tris-HCl and 10 mM EDTA-Na. The proteins were then reduced by dithiothreitol (1:50, w/w) and S-carboxymethylated by iodoacetamide (1:20, w/w). The alkylated proteins were precipitated by methanol/chloroform/water (4:1:3) and centrifuged at 18,000× g for 5 min at 4 °C. The pellet was resuspended in 6 M urea and mixed for 10 min at room temperature before the dilution with 0.1 M Tris-HCl (pH 8.5) to a final concentration of 1.2 M urea, and dissolved completely by intermittent sonication (Branson 3510, Danbury, CT, USA). The dissolved proteins were first digested with LysC (1/100, w/w) and 0.05% ProteaseMax (Promega Biotech AB, Nacka, Sweden) for 3 h at room temperature. Then, the samples were spiked with 10 µL (30 fmol) of the labelled peptides for absolute quantification (JPT Peptide Technologies GmbH, Berlin, Germany) (Table S2). The samples were incubated with (1/100, w/w) TPCK-Trypsin (Promega Biotech AB, Nacka, Sweden) for 18 h at 37 °C. The tryptic digestion was then quenched by adding 40 µL of 5% formic acid. The samples were then centrifuged at 18,000× g for 5 min at 4 °C, and the supernatants were transferred to vials for analysis.
The digested peptides were analyzed using an ultra-performance liquid chromatography system coupled with a triple quadrupole mass spectrometer with a heated electrospray ionization source in the positive mode (UPLC 1290 and MSD 6495, Agilent Technologies, Santa Clara, CA, USA). A total amount of 20 µL of the digested peptides (10 µg) was separated using AdvanceBio Peptide Map 2.1 × 250 mm, 2.7 μm column (Agilent Technologies, Santa Clara, CA, USA) and LC eluents of 0.1% formic acid in water (A) and acetonitrile (B). The peptides were eluted following a constant flow rate of 0.3 mL/min and a gradient of 2–7% B for 2 min, followed by 7–30% B for 48 min, 30–45% B for 3 min, and 45–80% B for 2.5 min before re-equilibrating the column again for 4.5 min. LAT1 was quantified based on the ratio between the light and heavy standard peptides, as described previously (Table S2). Data was acquired using Agilent MassHunter Workstation Acquisition (Agilent Technologies, Data Acquisition for Triple Quadrupole, version B.03.01) and processed by using Skyline software (version 20.1). The results were normalized to a housekeeping protein Na+/K+ATPase and expressed as fmol/µg of the total amount of protein in the samples.

LAT1 [3] = biological target: T1, LAT1 (Mus musculus, UniProt Q9Z127); assay: Cellular uptake of L-leucine after pre-incubation of BV2 cells with the compounds; type: cell-based; conditions: 100 µM (L-glutamine 2 mM) pre-incubated 10 min or 3 h, L-leucine 1–400 µM, 5 min
T1 sequence (Q9Z127 whole entry): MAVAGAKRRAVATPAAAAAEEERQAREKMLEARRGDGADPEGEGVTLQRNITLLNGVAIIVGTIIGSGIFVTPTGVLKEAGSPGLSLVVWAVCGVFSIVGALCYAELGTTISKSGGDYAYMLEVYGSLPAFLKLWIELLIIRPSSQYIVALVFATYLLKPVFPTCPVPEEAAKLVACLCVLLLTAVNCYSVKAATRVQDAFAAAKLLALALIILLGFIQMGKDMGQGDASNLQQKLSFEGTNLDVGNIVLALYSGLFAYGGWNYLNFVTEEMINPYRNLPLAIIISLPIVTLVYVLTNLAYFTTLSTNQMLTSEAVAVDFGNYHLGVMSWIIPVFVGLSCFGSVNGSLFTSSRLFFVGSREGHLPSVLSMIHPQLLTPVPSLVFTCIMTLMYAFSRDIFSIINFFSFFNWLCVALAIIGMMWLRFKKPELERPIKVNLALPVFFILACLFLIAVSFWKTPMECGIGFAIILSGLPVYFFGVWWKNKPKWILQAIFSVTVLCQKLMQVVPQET
T1 sequence (P10852 whole entry partner): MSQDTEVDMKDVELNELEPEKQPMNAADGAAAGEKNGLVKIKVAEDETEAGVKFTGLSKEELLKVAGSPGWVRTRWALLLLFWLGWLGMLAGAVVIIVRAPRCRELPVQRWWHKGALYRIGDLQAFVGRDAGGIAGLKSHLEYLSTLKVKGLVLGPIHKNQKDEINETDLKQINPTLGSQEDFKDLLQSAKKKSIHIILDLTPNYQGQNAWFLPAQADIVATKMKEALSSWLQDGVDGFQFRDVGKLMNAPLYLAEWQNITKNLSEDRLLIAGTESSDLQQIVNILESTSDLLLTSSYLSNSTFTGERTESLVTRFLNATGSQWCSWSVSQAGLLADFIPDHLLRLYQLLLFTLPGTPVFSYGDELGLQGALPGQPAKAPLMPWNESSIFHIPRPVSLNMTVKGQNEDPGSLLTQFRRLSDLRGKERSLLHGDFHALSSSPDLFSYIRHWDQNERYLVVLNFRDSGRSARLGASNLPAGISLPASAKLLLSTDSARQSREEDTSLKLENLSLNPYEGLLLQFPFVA
Procedure: The ability of compounds 1–15 to affect the uptake of a known LAT1 substrate L-leucine was evaluated by pre-incubating the BV2 cells at 37 °C for 10 min or 3 h with uptake buffer pH 7.4 (250 μL) containing 100 µM of compounds 1–15 or thyroxin (T4), or known nuclear receptor inducible compounds, phenobarbital (constitutive androstane receptor, CAR), and dexamethasone (pregnane X receptor, PXR) as controls. […] After incubation, the reaction was stopped by adding 250 µL of ice-cold HBSS, and the cells were washed two times with ice-cold HBSS. The cells were then lysed with 500 μL of 0.1 M NaOH (60 min) and the lysate was mixed with 3.5 mL of Emulsifier safe cocktail (Ultima Gold, PerkinElmer, Waltham, MA, USA). The radioactivity in the cells was measured by liquid scintillation counting (MicroBeta^2 counter, PerkinElmer Waltham, MA, USA). The results were multiplied by the amount of un-labeled proportion of L-leucine in each sample.

LAT1 [4] = biological target: T1, LAT1; design: method as in earlier work; conditions: BV2 cells; probe [14C]-L-Leu; mean ± SD; published earlier; ref [31] or [33]; read-out: IC50 of [14C]-L-Leu uptake; cited from earlier work

SMILES	Accumulation of parent drug (dosed as such) into crude lysosomal fraction, of total liver tissue accumulation [1]	LAT1 expression on the plasma membrane (LAT1 [2])	Effect on cellular uptake of L-Leu after pre-incubation (LAT1 [3])	IC50 (LAT1 [4]) [µM]
C[C@H](C(=O)Nc1cccc(C[C@H](N)C(=O)O)c1)c1cccc(C(=O)c2ccccc2)c1 [Compound 2]	no parent drug was detected	downregulated LAT1 expression	induced the uptake of L-Leu	
COc1cc(C=CC(=O)NCc2cccc(CC(N)C(=O)O)c2)ccc1O (stereo not shown) [Compound 5]		downregulated LAT1 expression	induced the uptake of L-Leu	
N[C@@H](Cc1cccc(NC(=O)c2ccccc2O)c1)C(=O)O [Compound 8]		did not have any effect on LAT1 expression		18.9 ± 1.6
C[C@H](C(=O)Nc1cccc(C[C@H](N)C(=O)O)c1)c1ccc(-c2ccccc2)c(F)c1 [Compound 9]		did not have any effect on LAT1 expression		
C[C@H](C(=O)Oc1cccc(C[C@H](N)C(=O)O)c1)c1ccc(-c2ccccc2)c(F)c1 [Compound 12]		did not have any effect on LAT1 expression		4.2 ± 1.2
